The format of data set [1] is in vivo, human. To be noted: for change of exposure (AUC) with dose: temsirolimus 8, 10 and 15 mg/m^2; for AUC(0-inf) / AUC(0-t) / Cmax / Tmax / Vd / half-life / clearance: human, intravenous; for AUC(0-inf) / AUC(0-t) / Cmax / Tmax / Vd / half-life: plasma; for clearance: whole blood.
A short description of data set [2]: Phase I toxicity, DLT and MTD determination. The format is in vivo, human. To be noted: for recommended pediatric phase II dose: IV once every 7 days.
The conditions of data set [3]: cited from earlier work.
For data set [4] the following is noted: adults, metastatic prostate cancer; with cixutumumab 6 mg/kg IV; cited from earlier work.
The conditions of data set [5]: in vivo, 6 mg/kg; cited from earlier work.
The conditions of data set [6]: in vivo; cited from earlier work.
A short description of data set [7]: Cixutumumab. To be noted: for AUC0–7d / CL / CL (weight-adjusted) / Cmax / Vdss / Vdss (weight-adjusted): median.
Setting [8] is: all patients, combination with temsirolimus.
Where [9] appears, read: cycle 1, IMC-A12 6 mg/kg + temsirolimus 8 mg/m^2 (n=8).
Where [10] appears, read: cycle 1, IMC-A12 6 mg/kg + temsirolimus 10 mg/m^2 (n = 3).
Setting [11] is: cycle 1, IMC-A12 6 mg/kg + temsirolimus 15 mg/m^2 (n = 4).

By AUC(0-inf) is commonly meant total exposure, with the tail of the curve extrapolated. Read a high AUC(0-inf) as high exposure. A word on the AUC(0-t): it is exposure summed from dosing to a finite time, without extrapolation to infinity. Usually Cmax stands for the peak of the concentration-time curve. As a reminder, the Tmax is the time from dosing to the highest level. A word on the Vd: it is the apparent volume that relates the amount in the body to the concentration in plasma or blood. A lower Vd goes with confinement near the circulation. By half-life is commonly meant how long it takes for the measured level to halve. Broadly, the clearance is a measure of how efficiently the substance is removed, as volume per time. A high value points to efficient removal. In general, Vdss refers to the apparent volume that relates the amount in the body to the concentration in plasma or blood.

Where two headings read alike, the source gives them in different places.

`CO[C@H]1C[C@@H]2CC[C@@H](C)[C@@](O)(O2)C(=O)C(=O)N2CCCC[C@H]2C(=O)O[C@H]([C@H](C)C[C@@H]2CC[C@@H](O)[C@H](OC)C2)CC(=O)[C@H](C)/C=C(\C)[C@@H](O)[C@@H](OC)C(=O)[C@H](C)C[C@H](C)/C=C/C=C/C=C/1C` [Sirolimus]: the “change of exposure (AUC) with dose” value in data set [1] is “did not appreciably increase with dose”; in data set [1] (listed as sirolimus), “did not increase significantly with dose”.

On to `CO[C@H]1C[C@@H]2CC[C@@H](C)[C@@](O)(O2)C(=O)C(=O)N2CCCC[C@H]2C(=O)O[C@H]([C@H](C)C[C@@H]2CC[C@@H](OC(=O)C(C)(CO)CO)[C@H](OC)C2)CC(=O)[C@H](C)/C=C(\C)[C@@H](O)[C@@H](OC)C(=O)[C@H](C)C[C@H](C)/C=C/C=C/C=C/1C` [Temsirolimus], for which, in data set [1] (8 mg/m2), the AUC(0-inf) was found to be 2950 ng·h/mL, the AUC(0-t) came out at 2020 ng·h/mL, the Cmax came to 509 ng/mL and the Tmax was determined as 0.8 h. In data set [1] (8 mg/m2), this compound had a Vd of 46.3 L, a half-life of 10.3 h and a clearance of 38.3 mL/min. Further, in data set [1] (10 mg/m2), the AUC(0-inf) was 3650 ng·h/mL, the AUC(0-t) is 2650 ng·h/mL, the Cmax turned out to be 606 ng/mL and the Tmax came out at 0.7 h. In data set [1] (10 mg/m2), this compound showed a Vd of 50.4 L, a half-life of 10.5 h and a clearance of 91.7 mL/min. In data set [1] (15 mg/m2), the AUC(0-inf) is 3270 ng·h/mL, the AUC(0-t) was found to be 2780 ng·h/mL, the Cmax came out at 660 ng/mL and the Tmax is 0.6 h. In data set [1] (15 mg/m2), the Vd was 74.9 L, the half-life is 10.3 h and the clearance is 112 mL/min. Also, in data set [1], the “change of exposure (AUC) with dose” value is “did not increase significantly with dose”. For the same compound, the MTD in data set [2] (temsirolimus combined with cixutumumab 6 mg/kg, children) was 8 mg/m^2. In data set [2] (temsirolimus in combination with cixutumumab), the “recommended pediatric phase II dose” value is reported as 8 mg/m^2. In addition, in data set [3] (after a 25-mg dose), the “clearance from whole blood, mean” value is 20 L/h and the “steady-state volume of distribution (Vss)” value is 230 L. For the same compound, in data set [3] (after a 250-mg dose), the “clearance from whole blood, mean” value is recorded as 100 L/h and the “steady-state volume of distribution (Vss)” value is 900 L. Moreover, in data set [4], the “MTD of temsirolimus in the combination, flat dose” value is 20 mg and the “MTD of temsirolimus in the combination, per body surface” value is given as 11 mg/m^2.

As for “Cixutumumab: fully recombinant IgG1 monoclonal antibody that specifically targets the human IGF-IR1”, in data set [5], the half-life is 209 h and the steady-state trough concentration was 145 mg/mL. For the same compound, in data set [6], the “recommended phase II dose, single agent” value is 9 mg/kg. Further, in data set [2] (cixutumumab in combination with temsirolimus), the “recommended pediatric phase II dose” value is listed as 6 mg/kg. In data set [7] (setting [8]), the median half-life was 122 h and the median weight-adjusted clearance came out at 4.08 mL/day/kg. In data set [7] (at 6 mg/kg, children), this compound registered a half-life of 122 h and a steady-state trough concentration of 197 mg/mL. The “median serum trough concentration (Ctrough)” value in data set [7] (day 28 following a 6 mg/kg dose) is on record as “approximately 200 μg/ml”. In data set [7] (setting [9]), the “AUC0–7d” value came out at 20.6 ng·h/mL, the CL turned out to be 8.3 mL/h, the “CL (weight-adjusted)” value was 4.56 mL/day/kg and the Cmax is 281000 ng/mL. In data set [7] (setting [9]), the Vdss is recorded as 1050 mL and the “Vdss (weight-adjusted)” value was found to be 0.0258 L/kg. Further, in data set [7] (setting [10]), the “AUC0–7d” value is 25.6 ng·h/mL, the CL came to 9.9 mL/h, the “CL (weight-adjusted)” value amounted to 4.08 mL/day/kg and the Cmax turned out to be 277000 ng/mL. Moreover, in data set [7] (setting [10]), the Vdss stood at 1750 mL and the “Vdss (weight-adjusted)” value was found to be 0.0227 L/kg. Also, in data set [7] (setting [11]), the “AUC0–7d” value came to 26.4 ng·h/mL, the CL is on record as 7.0 mL/h, the “CL (weight-adjusted)” value came to 3.12 mL/day/kg and the Cmax worked out at 230000 ng/mL. In data set [7] (setting [11]), the Vdss was determined as 1860 mL and the “Vdss (weight-adjusted)” value was 0.0311 L/kg. Moreover, the “change in cixutumumab clearance as the temsirolimus dose was increased” value in data set [7] (temsirolimus 8 to 15 mg/m^2) is listed as “no changes”.

Values taken from paper PMC4454739 (Clinical cancer research : an official journal of the …, 2014).
